Key:
[1] = tested on: rabbit anti-PIF monoclonal antibody; test: PIF colorimetric ELISA using rabbit anti-PIF monoclonal antibody, epitope mapping with PIF peptides of various length; assay type: binding; details: for recovery by PIF colorimetric ELISA using rabbit anti-PIF monoclonal antibody: Table 3, spike concentration not given; for % Recovery by Rabbit Monoclonal Antibody: representative value of three repeats
Method: (§1) To study PIF peptide and its derivatives of different length for binding to rabbit anti-PIF monoclonal antibody and rabbit anti-PIF polyclonal antibody, PIF peptides of various lengths as listed in Table 2 was synthesized, reconstituted in PBS and two different concentrations were tested by respective colorimetric ELISA following standard protocol. The standards were run in duplicate and the samples were run in triplicate and repeated three times.

[2] = tested on: rabbit anti-PIF polyclonal antibody; test: PIF colorimetric ELISA using rabbit polyclonal antibody, epitope mapping with PIF peptides of various length; assay type: binding; details: for recovery by PIF colorimetric ELISA using rabbit polyclonal antibody: Table 3, spike concentration not given; for % recovery by Rabbit Polyclonal Antibody: representative value of three repeats
Method: as §1

| Substance | recovery by PIF colorimetric ELISA using rabbit anti-PIF monoclonal antibody [1] | % Recovery by Rabbit Monoclonal Antibody ([1]; spike concentration 100 ng/ml) [%] | % Recovery by Rabbit Monoclonal Antibody ([1]; spike concentration 200 ng/ml) [%] | recovery by PIF colorimetric ELISA using rabbit polyclonal antibody [2] | % recovery by Rabbit Polyclonal Antibody ([2]; spike concentration 100 ng/ml) [%] | % recovery by Rabbit Polyclonal Antibody ([2]; spike concentration 200 ng/ml) [%] | % Recovery by Rabbit Monoclonal Antibody ([1]; spike concentration 500 ng/ml) [%] | % Recovery by Rabbit Monoclonal Antibody ([1]; spike concentration 1000 ng/ml) [%] | % recovery by Rabbit Polyclonal Antibody ([2]; spike concentration 500 ng/ml) [%] | % recovery by Rabbit Polyclonal Antibody ([2]; spike concentration 1000 ng/ml) [%] |
| --- | --- | --- | --- | --- | --- | --- | --- | --- | --- | --- |
| P1-14: PIF peptide, amino acid locations 1-14 (M V R I K P G S A N K P S D) (MVRIKPGSANKPSD) [Clone P1-14] | about 3.8% | 3.8 | 3.8 | about 40% | 44.6 | 30.0 | – | – | – | – |
| P1-7: PIF peptide, amino acid locations 1-7 (M V R I K P G) (MVRIKPG) [Clone P1-7] | – | 0 | 0 | – | 0 | 0 | – | – | – | – |
| P10-15: PIF peptide, amino acid locations 10-15 (N K P S D D) (NKPSDD) [Clone P10-15] | – | 0 | 0 | – | 0 | 0 | – | – | – | – |
| P8-15: PIF peptide, amino acid locations 8-15 (S A N K P S D D) (SANKPSDD) [Clone P8-15] | – | 0 | 0 | – | 0 | 0 | – | – | – | – |
| MVRIKPGSANKPSDD [Clone P1-15] | 100% | – | – | 100% | – | – | 100.0 | 100.0 | 115.0 | 101.4 |
| P5-10: PIF peptide, amino acid locations 5-10 (K P G S A N) (KPGSAN) [Clone P5-10] | – | 0 | 0 | – | 0 | 0 | – | – | – | – |

Reference: patent US20230400471A1, “SYSTEMS, COMPOSITIONS AND METHODS OF DETERMINING VIABILITY OF EMBRYOS USING THE SAME” (BioIncept, LLC, priority 2020, published 2023)
